The values that follow come from article PMC9731865, “Gambogic acid and juglone inhibit RNase P through distinct mechanisms” (The Journal of Biological Chemistry, 2022).

By kinact/KI is commonly meant the maximal inactivation rate divided by the concentration that gives half of it. As a reminder, the IC50 is the midpoint of a concentration-inhibition curve.

Molecules are shown by their SMILES. Where “and” joins values, the source holds several entries; their conditions need not be identical. Equal entries are not always repeated. Where two headings read alike, the source gives them in different places.

The target of test [1] is T1, PRORP1 (Arabidopsis thaliana, UniProt Q66GI4).
T1 construct: made in house
T1 sequence (Q66GI4 77-572): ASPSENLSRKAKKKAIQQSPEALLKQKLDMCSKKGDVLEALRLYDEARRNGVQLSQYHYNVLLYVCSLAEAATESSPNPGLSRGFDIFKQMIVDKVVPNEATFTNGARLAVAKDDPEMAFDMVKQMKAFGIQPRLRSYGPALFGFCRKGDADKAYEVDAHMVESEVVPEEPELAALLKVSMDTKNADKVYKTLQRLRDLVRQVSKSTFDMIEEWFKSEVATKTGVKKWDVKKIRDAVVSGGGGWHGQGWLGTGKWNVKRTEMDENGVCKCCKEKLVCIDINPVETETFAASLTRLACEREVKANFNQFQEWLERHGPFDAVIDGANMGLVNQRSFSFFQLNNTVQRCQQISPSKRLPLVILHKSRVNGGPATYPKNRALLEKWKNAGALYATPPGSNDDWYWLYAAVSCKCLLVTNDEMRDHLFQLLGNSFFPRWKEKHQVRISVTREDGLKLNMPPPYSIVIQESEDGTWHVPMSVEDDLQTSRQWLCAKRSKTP
The test is described as follows: Mode of inhibition of gambogic acid, PRORP1 activity at varying pre-tRNA and inhibitor. The format is biochemical, A. thaliana. On the procedure:
Equation 2 was fit to each data set to calculate the values of kcat,app, and KM,app, and (kcat/KM)app. […] The dotted line simulates the fit of Equation 3 with n = 1. C, kcat/KM,app values for PRORP1 activity vary little as a function of the gambogic acid concentration. Error bars indicate standard errors obtained from fitting the data.
To identify the mode of inhibition of gambogic acid, PRORP1 activity was measured with varying pre-tRNA and gambogic acid concentrations. The Michaelis–Menten equation (Equation 2) was fit to each curve individually to calculate the apparent turnover rate constant (kcat,app) and apparent substrate concentration at half maximal activity (KM,app). […] (3) kcat,app=kcat/1+([I]/KI)^n (4) KM,app=KM/1+([I]/KI)^n

Test [2] addresses T2, PRORP1 C353A (Arabidopsis thaliana, UniProt Q66GI4, C353A).
T2 construct: made in house
In words: Time-dependent inactivation by juglone, PRORP1 C353A. The format is biochemical, A. thaliana. On the procedure:
(§1) Given the multiple sites of cysteine modification, we wanted to identify the one(s) that potentially play a significant role in PRORP1 inactivation. Therefore, several cysteine-to-alanine point mutants were expressed, purified, and subjected to inhibition studies. We tested both single-site (C353A and C373A) and double-site (C353A/C373A and C222A/C353A) mutations. […] The value of kinact,app for each PRORP1 at varied concentrations of juglone was determined by fitting a single exponential equation (Equation 5) to the data (Fig. 10A). Unexpectedly, the values of kinact/KI (reflecting the inhibition of E + I to form EI∗) increased for a number of the PRORP1 variants: wildtype (0.001 ± 0.00004 μM^-1 min^-1), C353A (0.005 ± 0.002 μM^−1 min^−1), C373A (0.002 ± 0.0004 μM^-1 min^−1), C222A/C353A (0.003 ± 0.0001 μM^−1 min^−1), and C353A/C373A (0.0008 ± 0.0002 μM^-1 min^−1). These modest increases could be due to a decrease in the KI value or an increase in the value of kinact. […] Although, we cannot discount the possibility, however unlikely, that juglone may employ a mode of inhibition beyond cysteine residue modification that our crystal structures fail to capture.
(§2) Figure 10 Effects of PRORP1 cysteine mutations on juglone inactivation. […]
(§3) For the analysis of juglone, PRORP1 activity was measured with varying preincubation time and juglone concentration. […]

Test [3] concerns the target T3, PRORP1 C373A (Arabidopsis thaliana, UniProt Q66GI4, C373A).
T3 construct: made in house
The test is described as follows: Time-dependent inactivation by juglone, PRORP1 C373A. The format is biochemical, A. thaliana. On the procedure:
as §1, §2, §3

Test [4] addresses T4, PRORP1 C222A/C353A (Arabidopsis thaliana, UniProt Q66GI4, C222A/C353A).
T4 construct: made in house
The test is described as follows: Time-dependent inactivation by juglone, PRORP1 C222A/C353A. The format is biochemical, A. thaliana. On the procedure: as §1, §2, §3

Test [5] concerns the target T5, PRORP1 C353A/C373A (Arabidopsis thaliana, UniProt Q66GI4, C353A/C373A).
T5 construct: made in house
In words: Time-dependent inactivation by juglone, PRORP1 C353A/C373A. The format is biochemical, A. thaliana. On the procedure:
as §1, §2, §3

The target of test [6] is T. maritima RNase P. The arrangement: method as in PMID 30997498. Conditions: cited from earlier work.

T3 sequence (Q66GI4 77-572 C373A): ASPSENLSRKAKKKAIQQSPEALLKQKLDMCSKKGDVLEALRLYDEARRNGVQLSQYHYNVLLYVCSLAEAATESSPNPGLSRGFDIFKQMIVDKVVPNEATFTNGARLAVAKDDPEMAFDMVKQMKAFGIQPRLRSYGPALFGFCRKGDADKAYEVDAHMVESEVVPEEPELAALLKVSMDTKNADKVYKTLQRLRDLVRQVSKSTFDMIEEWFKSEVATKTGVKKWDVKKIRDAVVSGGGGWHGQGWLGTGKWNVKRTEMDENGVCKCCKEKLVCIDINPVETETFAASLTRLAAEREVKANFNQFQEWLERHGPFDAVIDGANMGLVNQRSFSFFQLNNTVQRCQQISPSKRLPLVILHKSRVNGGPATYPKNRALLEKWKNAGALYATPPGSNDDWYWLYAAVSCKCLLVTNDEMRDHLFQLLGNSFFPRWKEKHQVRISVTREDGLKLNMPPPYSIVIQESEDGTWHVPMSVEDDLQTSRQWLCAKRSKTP
T2 sequence (Q66GI4 77-572 C353A): as the sequence (Q66GI4 77-572 C373A) above, with C277A, A297C counted along it
T5 sequence (Q66GI4 77-572 C353A/C373A): as the sequence (Q66GI4 77-572 C373A) above, with C277A counted along it
T4 sequence (Q66GI4 77-572 C222A/C353A): as the sequence (Q66GI4 77-572 C373A) above, with C146A, C277A, A297C counted along it

In the case of `CC(C)=CCC[C@]1(C)C=Cc2c(O)c3c(c(CC=C(C)C)c2O1)O[C@]12C(=C[C@@H]4C[C@H]1C(C)(C)O[C@@]2(C/C=C(/C)C(=O)O)C4=O)C3=O` [gambogic acid], in test [1] (dependence of kcat,app on gambogic acid concentration), the “Hill coefficient (n), fit of Equation 3” value is 4 and 3.8 ± 0.8. The Ki worked out at 1.1 ± 0.03 µM in test [1] (global fit, read-out: KI, global fit analysis (Equations 2, 3, 4)) and 1.08 ± 0.05 µM in test [1] (uncompetitive model, gambogic acid 0-1.6 μM, read-out: inhibition constant (KI), fit of Equation 3 to kcat,app). Moreover, the “mode of inhibition of PRORP1” value in test [1] (kcat,app decreases, (kcat/KM)app unchanged) is on record as “uncompetitive inhibitor”.
With `O=C1C=CC(=O)c2c(O)cccc21` [juglone, 5-hydroxy-1,4-naphthalenedione], the Ki in test [2] and in test [3] was above 10 µM in each case. The kinact/KI in test [2] was 83.3 M⁻¹ s⁻¹; in test [3], 33.3 M⁻¹ s⁻¹; in test [4] it was 50 M⁻¹ s⁻¹; in test [5], 13.3 M⁻¹ s⁻¹. Besides, the “inhibition at time 0” value in test [4] (double-cysteine mutation (C222A/C353A)) and in test [5] (double-cysteine mutation (C353A/C373A)) was “not observed” each time. Besides, the IC50 in test [6] was 12.8 µM.
